Ki data for one compound are collected here from BindingDB's records for patent US12247013 (Antabio, 2025).

In the experiment the target is Elastase (Pseudomonas aeruginosa (strain ATCC 15692 / DSM 22644 / CIP 104116 / JCM 14847 / LMG 12228 / 1C / PRS 101 / PAO1), UniProt P14756). Briefly: Fluorometric Assay. On the procedure: Method: 10 to 140 ng/ml purified LasB is incubated with 250 μM Abz-Ala-Gly-Leu-Ala-p-Nitro-Benzyl-Amide in 50 mM Tris-HCl pH 7.4, 2.5 mM CaCl2), 0.01% of Triton X100 at 37° C. LasB activity (corresponding to fluorescence emission induced by substrate hydrolysis) is measured over 30 min at 37° C. with a fluorescence plate reader such as the Perkin Elmer Envision or similar. Different range of inhibitor concentrations are routinely assessed depending of inhibitor potency from 0.0016 to 200 μM (2-fold dilutions series) in order to determine IC50.
Elastase, sequence (P14756 whole entry): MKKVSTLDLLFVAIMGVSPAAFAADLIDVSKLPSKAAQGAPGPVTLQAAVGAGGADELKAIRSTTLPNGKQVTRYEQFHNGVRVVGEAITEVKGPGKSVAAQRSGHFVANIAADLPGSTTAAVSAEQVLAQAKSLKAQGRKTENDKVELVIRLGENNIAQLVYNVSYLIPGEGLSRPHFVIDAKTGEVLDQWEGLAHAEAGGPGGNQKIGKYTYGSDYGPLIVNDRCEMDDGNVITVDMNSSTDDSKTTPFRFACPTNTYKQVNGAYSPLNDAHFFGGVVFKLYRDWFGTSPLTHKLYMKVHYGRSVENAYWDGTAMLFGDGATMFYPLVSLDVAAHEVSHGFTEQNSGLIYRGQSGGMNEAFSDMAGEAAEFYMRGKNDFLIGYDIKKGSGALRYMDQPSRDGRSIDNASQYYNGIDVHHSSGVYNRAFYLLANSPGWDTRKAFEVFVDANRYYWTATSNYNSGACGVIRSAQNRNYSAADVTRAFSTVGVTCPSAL

By Ki is commonly meant a measure of affinity in units of concentration, obtained from inhibition or displacement. In the case of `COc1cc2sc(CNC(=O)C3(CC(=O)O)Cc4cc(F)c(F)cc4C3)nc2cc1C(=O)N1CCN(C)CC1` [US12247013, Example 34], the inhibitory constant (Ki) was < 50 nM.
